Test results taken from ChEMBL document CHEMBL1122447, “2-Acetylpyridine thiosemicarbazones. 5. 1-[1-(2-Pyridyl)ethyl]-3-thiosemicarbazides as potential antimalarial agents” (1983).

Key:
[1] = tested on: Plasmodium berghei; assay: Increased mean survival time in drug-sensitive Plasmodium berghei infected mice (Mus musculus) at 640 mg/kg; toxic in 5 of 5; assay type: functional, organism-based; set-up: dose 640 mg/kg
[2] = tested on: Plasmodium berghei; assay: Increased mean survival time in drug-sensitive Plasmodium berghei infected mice (Mus musculus) at 40 mg/kg dose; assay type: functional
[3] = tested on: Plasmodium berghei; assay: Antimalarial activity against Plasmodium berghei infected mice (Mus musculus) at 160 mg/kg; cured 1 of 5; assay type: functional, organism-based; set-up: dose 160 mg/kg
[4] = tested on: Plasmodium berghei; assay: Antimalarial activity against Plasmodium berghei infected mice (Mus musculus) at 160 mg/kg; toxic in 3 of 5; assay type: functional, organism-based; set-up: dose 160 mg/kg
[5] = tested on: Plasmodium berghei; assay: Antimalarial activity against Plasmodium berghei infected mice (Mus musculus) at 640 mg/kg; toxic in 5 of 5; assay type: functional, organism-based; set-up: dose 640 mg/kg
[6] = tested on: Plasmodium berghei; assay: Increased mean survival time in drug-sensitive Plasmodium berghei infected mice (Mus musculus) at 20 mg/kg dose; assay type: functional
[7] = tested on: Plasmodium berghei; assay: Increased mean survival time in drug-sensitive Plasmodium berghei infected mice (Mus musculus) at 40 mg/kg; toxic in 2 of 5; assay type: functional, organism-based; set-up: dose 40 mg/kg
[8] = tested on: Plasmodium berghei; assay: Increased mean survival time in drug-sensitive Plasmodium berghei infected mice (Mus musculus) at 160 mg/kg; toxic in 5 of 5; assay type: functional, organism-based; set-up: dose 160 mg/kg
[9] = tested on: Plasmodium berghei; assay: Increased mean survival time in drug-sensitive Plasmodium berghei infected mice (Mus musculus) at 80 mg/kg; cured 5 of 5; assay type: functional, organism-based; set-up: dose 80 mg/kg
[10] = tested on: Plasmodium berghei; assay: Increased mean survival time in drug-sensitive Plasmodium berghei infected mice (Mus musculus) at 40 mg/kg; cured 4 of 5; assay type: functional, organism-based; set-up: dose 40 mg/kg
[11] = tested on: Plasmodium berghei; assay: Increased mean survival time in drug-sensitive Plasmodium berghei infected mice (Mus musculus) at 160 mg/kg; cured 2 of 5; assay type: functional, organism-based; set-up: dose 160 mg/kg
[12] = tested on: Plasmodium berghei; assay: Increased mean survival time in drug-sensitive Plasmodium berghei infected mice (Mus musculus) at 20 mg/kg; cured 3 of 5; assay type: functional, organism-based; set-up: dose 20 mg/kg
[13] = tested on: Plasmodium berghei; assay: Increased mean survival time in drug-sensitive Plasmodium berghei infected mice (Mus musculus) at 320 mg/kg dose; assay type: functional
[14] = tested on: Plasmodium berghei; assay: Antimalarial activity against Plasmodium berghei infected mice (Mus musculus) at 40 mg/kg; cured 1 of 5; assay type: functional, organism-based; set-up: dose 40 mg/kg
[15] = tested on: Plasmodium berghei; assay: Increased mean survival time in drug-sensitive Plasmodium berghei infected mice (Mus musculus) at 80 mg/kg; active; assay type: functional
[16] = tested on: Plasmodium berghei; assay: Increased mean survival time in drug-sensitive Plasmodium berghei infected mice (Mus musculus) at 160 mg/kg; cured 3 of 5; assay type: functional, organism-based; set-up: dose 160 mg/kg
[17] = tested on: Plasmodium berghei; assay: Antimalarial activity against Plasmodium berghei infected mice (Mus musculus) at 160 mg/kg; toxic in 1 of 5; assay type: functional, organism-based; set-up: dose 160 mg/kg
[18] = tested on: Plasmodium berghei; assay: Antimalarial activity against Plasmodium berghei infected mice (Mus musculus) at 20 mg/kg; toxic in 1 of 5; assay type: functional, organism-based; set-up: dose 20 mg/kg
[19] = tested on: Plasmodium berghei; assay: Antimalarial activity against Plasmodium berghei infected mice (Mus musculus) at 320 mg/kg; toxic in 2 of 5; assay type: functional, organism-based; set-up: dose 320 mg/kg
[20] = tested on: Plasmodium berghei; assay: Antimalarial activity against Plasmodium berghei infected mice (Mus musculus) at 320 mg/kg; toxic in 3 of 5; assay type: functional, organism-based; set-up: dose 320 mg/kg
[21] = tested on: Plasmodium berghei; assay: Antimalarial activity against Plasmodium berghei infected mice (Mus musculus) at 80 mg/kg; toxic in 1 of 5; assay type: functional, organism-based; set-up: dose 80 mg/kg
[22] = tested on: Plasmodium berghei; assay: Antimalarial activity as increased MST in Plasmodium berghei infected mice (Mus musculus) at 160 mg/kg; assay type: functional
[23] = tested on: Plasmodium berghei; assay: Antimalarial activity as increased MST in Plasmodium berghei infected mice (Mus musculus) at 40 mg/kg; assay type: functional
[24] = tested on: Plasmodium berghei; assay: Antimalarial activity as increased MSTin Plasmodium berghei infected mice (Mus musculus) at 640 mg/kg; Toxic in 3 of 5; assay type: functional
[25] = tested on: Plasmodium berghei; assay: Increased mean survival time in drug-sensitive Plasmodium berghei infected mice (Mus musculus) at 640 mg/kg; toxic in 4 of 5; assay type: functional
[26] = tested on: Plasmodium berghei; assay: Increased mean survival time in drug-sensitive Plasmodium berghei infected mice (Mus musculus) at 80 mg/kg; cured 3 of 5; assay type: functional, organism-based; set-up: dose 80 mg/kg
[27] = tested on: Plasmodium berghei; assay: Increased mean survival time in drug-sensitive Plasmodium berghei infected mice (Mus musculus) at 160 mg/kg; cured 5 of 5; assay type: functional, organism-based; set-up: dose 160 mg/kg
[28] = tested on: Plasmodium berghei; assay: Increased mean survival time in drug-sensitive Plasmodium berghei infected mice (Mus musculus) at 20 mg/kg; cured 1 of 5; assay type: functional, organism-based; set-up: dose 20 mg/kg
[29] = tested on: Plasmodium berghei; assay: Increased mean survival time in drug-sensitive Plasmodium berghei infected mice (Mus musculus) at 40 mg/kg; cured 3 of 5; assay type: functional, organism-based; set-up: dose 40 mg/kg
[30] = tested on: Plasmodium berghei; assay: Increased mean survival time in drug-sensitive Plasmodium berghei infected mice (Mus musculus) at 320 mg/kg; cured 2 of 5; assay type: functional, organism-based; set-up: dose 320 mg/kg
[31] = tested on: Plasmodium berghei; assay: Increased mean survival time in drug-sensitive Plasmodium berghei infected mice (Mus musculus) at 80 mg/kg; cures 4 of 5; assay type: functional, organism-based; set-up: dose 80 mg/kg
[32] = tested on: Plasmodium berghei; assay: Increased mean survival time in drug-sensitive Plasmodium berghei infected mice (Mus musculus) at 640 mg/kg; cured 2 of 5; assay type: functional, organism-based; set-up: dose 640 mg/kg
[33] = tested on: Plasmodium berghei; assay: Antimalarial activity against Plasmodium berghei infected mice (Mus musculus) at 160 mg/kg; toxic in 5 of 5; assay type: functional, organism-based; set-up: dose 160 mg/kg
[34] = tested on: Plasmodium berghei; assay: Increased mean survival time in drug-sensitive Plasmodium berghei infected mice (Mus musculus) at 640 mg/kg; cured 3 of 5; assay type: functional, organism-based; set-up: dose 640 mg/kg
[35] = tested on: Plasmodium berghei; assay: Increased mean survival time in drug-sensitive Plasmodium berghei in mice (Mus musculus) at 80 mg/kg dose; assay type: functional
[36] = tested on: Plasmodium berghei; assay: Increase in mean survival time in drug-sensitive Plasmodium berghei infected mice (Mus musculus) at 160 mg/kg dose; cured 1 of 5; assay type: functional, organism-based; set-up: dose 160 mg/kg

C/C(=N\NC(=S)N(C)C)c1ccccn1
Survival time [1]: Toxic in 5 of 5 mice | Survival time [2]: 0.5 days

CC(N/N=C(\S)N1CCCC1)c1ccccn1 (configuration not stated)
Survival time [2]: 5.2 days | Survival time [3]: Cured 1 of 5 mice | Survival time [4]: Toxic in 3 of 5 mice | Survival time [5]: Toxic in 5 of 5 mice | Survival time [6]: 1.3 days

CCOC(=O)N1CCN(/C(S)=N/N=C(\C)c2ccccn2)CC1
Survival time [1]: Toxic in 5 of 5 mice | Survival time [7]: Cured 2 of 5 mice; toxic in 2 of 5 mice | Survival time [8]: Toxic in 5 of 5 mice

C/C(=N\NC(=S)N1CCN(c2ccccn2)CC1)c1ccccn1
Survival time [1]: Toxic in 5 of 5 mice | Survival time [9]: Cured 5 of 5 mice | Survival time [10]: Cured 4 of 5 mice | Survival time [11]: Cured 2 of 5 mice | Survival time [12]: Cured 3 of 5 mice | Survival time [13]: 0.7 days

CC1CCN(/C(S)=N/NC(C)c2ccccn2)CC1 (configuration not stated)
Survival time [3]: Cured 1 of 5 mice | Survival time [4]: Toxic in 3 of 5 mice | Survival time [14]: Cured 1 of 5 mice | Survival time [5]: Toxic in 5 of 5 mice

CC(N/N=C(\S)N(C)C1CCCCC1)c1ccccn1 (configuration not stated)
Survival time [2]: 3.7 days | Survival time [15]: 7.1 days | Survival time [16]: Cured 3 of 5 mice | Survival time [17]: Toxic in 1 of 5 mice | Survival time [18]: Toxic in 1 of 5 mice | Survival time [19]: Cured 2 of 5 mice | Survival time [20]: Toxic in 3 of 5 mice | Survival time [21]: Toxic in 1 of 5 mice | Survival time [6]: 2.9 days

CC(N/N=C(\S)NCc1ccccc1)c1ccccn1 (configuration not stated)
Survival time [22]: 0.7 days | Survival time [23]: -0.1 days | Survival time [24]: 2.4 days

C/C(=N\N=C(/S)N1CC2CCC(CC2)C1)c1ccccn1
Survival time [25]: 0.4 days | Survival time [26]: Cured 3 of 5 mice | Survival time [27]: Cured 5 of 5 mice | Survival time [28]: Cured 1 of 5 mice | Survival time [13]: 0.2 days | Survival time [29]: Cured 3 of 5 mice

C/C(=N\NC(=S)N1CCCCCC1)c1ccccn1
Survival time [30]: Cured 2 of 5 mice; toxic in 2 of 5 mice | Survival time [2]: 6.2 days | Survival time [31]: Cured 4 of 5 mice | Survival time [32]: Cured 2 of 5 mice; toxic in 3 of 5 mice | Survival time [16]: Cured 3 of 5 mice; toxic in 1 of 5 mice

CC(N/N=C(\S)N1CCCCCC1)c1ccccn1 (configuration not stated)
Survival time [2]: 2.4 days | Survival time [33]: Toxic in 5 of 5 mice | Survival time [5]: Toxic in 5 of 5 mice

C/C(=N\N=C(/[SeH])N1CC2CCC(CC2)C1)c1ccccn1
Survival time [34]: Cured 3 of 5 mice | Survival time [35]: 5.9 days | Survival time [30]: Cured 2 of 5 mice | Survival time [2]: 0.8 days | Survival time [36]: Cured 1 of 5 mice | Survival time [6]: -0.1 days
